Reference: ChEMBL document CHEMBL3822415, “Toward the Validation of Maternal Embryonic Leucine Zipper Kinase: Discovery, Optimization of Highly Potent and Selective Inhibitors, and Preliminary Biology Insight” (J Med Chem, 2016)
Values after ≈ are worked out from the molar mass of the structure shown. Blank lines part the entries; values can stand above or below the compound they belong to.

Columns and labels:
[1] = biological target: T1, Maternal embryonic leucine zipper kinase (Homo sapiens, UniProt Q14680); experiment: Inhibition of MELK catalytic domain (unknown origin) preincubated for 20 mins followed by addition of KinEASE STK S1 peptide as substrate in presence of 2 mM ATP measured after 20 mins by time-resolved fluorescence assay
[2] = biological target: T1, Maternal embryonic leucine zipper kinase; experiment: Inhibition of MELK catalytic domain (unknown origin) preincubated for 20 mins followed by addition of KinEASE STK S1 peptide as substrate in presence of 20 uM ATP measured after 20 mins by time-resolved fluorescence assay
[3] = biological target: T2, Receptor-type tyrosine-protein kinase FLT3 (Homo sapiens, UniProt P36888); experiment: Inhibition of FLT3 (unknown origin)
T2 sequence (P36888 whole entry): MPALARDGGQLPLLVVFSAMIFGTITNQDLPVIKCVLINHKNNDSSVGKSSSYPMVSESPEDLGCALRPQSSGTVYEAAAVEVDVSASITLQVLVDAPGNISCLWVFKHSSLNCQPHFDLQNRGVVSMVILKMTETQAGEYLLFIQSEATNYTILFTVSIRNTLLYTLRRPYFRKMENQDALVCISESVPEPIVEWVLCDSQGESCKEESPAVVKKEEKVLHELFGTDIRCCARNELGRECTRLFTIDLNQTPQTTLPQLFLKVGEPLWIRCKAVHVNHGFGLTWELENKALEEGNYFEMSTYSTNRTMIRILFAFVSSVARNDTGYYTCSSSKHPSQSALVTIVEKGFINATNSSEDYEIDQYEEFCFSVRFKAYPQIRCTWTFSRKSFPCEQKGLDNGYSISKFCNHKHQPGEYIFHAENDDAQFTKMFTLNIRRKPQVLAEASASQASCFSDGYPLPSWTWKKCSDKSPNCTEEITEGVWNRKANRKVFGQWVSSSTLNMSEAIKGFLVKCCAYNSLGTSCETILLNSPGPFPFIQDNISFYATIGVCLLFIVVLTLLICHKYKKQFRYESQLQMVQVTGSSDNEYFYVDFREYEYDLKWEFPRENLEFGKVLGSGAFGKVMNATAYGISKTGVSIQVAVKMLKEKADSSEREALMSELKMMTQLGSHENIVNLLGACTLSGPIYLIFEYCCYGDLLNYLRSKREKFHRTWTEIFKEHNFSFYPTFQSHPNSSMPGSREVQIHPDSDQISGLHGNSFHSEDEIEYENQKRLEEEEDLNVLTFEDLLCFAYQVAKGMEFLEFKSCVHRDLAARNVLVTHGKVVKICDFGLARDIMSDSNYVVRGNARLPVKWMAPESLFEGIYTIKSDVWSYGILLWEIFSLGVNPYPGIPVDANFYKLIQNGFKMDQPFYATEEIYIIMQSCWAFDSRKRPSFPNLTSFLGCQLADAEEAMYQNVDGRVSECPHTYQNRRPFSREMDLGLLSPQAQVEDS

[4] = biological target: Mitogen-activated protein kinase kinase kinase kinase 4 (Homo sapiens, UniProt O95819); experiment: Inhibition of MAP4K4 (unknown origin)
[5] = biological target: T3, Platelet-derived growth factor receptor alpha (Homo sapiens, UniProt P16234); experiment: Inhibition of PDGFR-alpha (unknown origin)
MDA-MB-468 = experiment: Antiproliferative activity against MELK-dependent human MDA-MB-468 cells assessed as reduction in cell viability after 7 days by CellTiter-Glo assay; details: MDA-MB-468, 168 h
MCF7 = experiment: Antiproliferative activity against MELK-independent ER-positive human MCF7 cells assessed as reduction in cell viability after 7 days by CellTiter-Glo assay; details: MCF7, 168 h
[6] = Clearance in C57BL/6 mouse at 1 mg/kg, iv by LC-MS/MS analysis; type: ADME, organism-based; details: in vivo
[7] = Tmax in C57BL/6 mouse at 30 mg/kg, sc by LC-MS/MS analysis; type: ADME, organism-based; details: in vivo
[8] = AUC (0 to 7 hrs) in C57BL/6 mouse at 10 mg/kg, po by LC-MS/MS analysis; type: ADME, organism-based; set-up: time < 7 hr, dose 10 mg/kg, route oral; details: in vivo
[9] = biological target: Mast/stem cell growth factor receptor Kit (Homo sapiens, UniProt P10721, A829P); experiment: Inhibition of partial-length human KIT A829P mutant expressed in mammalian expression system by KINOMEscan assay
Plasma [10] = experiment: Drug uptake in plasma of athymic nude mouse at 120 to 240 mg/kg, sc qd; type: ADME, organism-based; details: in vivo
[11] = AUC (0 to 7 hrs) in C57BL/6 mouse at 30 mg/kg, sc by LC-MS/MS analysis; type: ADME, organism-based; set-up: dose 30 mg/kg, time < 7 hr, route subcutaneous; details: in vivo
[12] = biological target: Receptor-type tyrosine-protein kinase FLT3 (Homo sapiens, UniProt P36888, ITD); experiment: Inhibition of partial-length human FLT3 ITD mutant expressed in bacterial expression system by KINOMEscan assay
[13] = biological target: T1, Maternal embryonic leucine zipper kinase; experiment: Binding affinity to MELK (unknown origin) expressed in Escherichia coli by SPR analysis
Plasma [14] = experiment: Metabolic stability in mouse plasma measured after 4 hrs; type: ADME, cell-free
[15] = biological target: T1, Maternal embryonic leucine zipper kinase; experiment: Inhibition of full-length MELK (unknown origin) preincubated for 20 mins followed by addition of KinEASE STK S1 peptide as substrate in presence of 20 uM ATP measured after 20 mins by time-resolved fluorescence assay
[16] = Solubility of the compound at pH 6.8; type: physicochemical; details: buffer
[17] = Half life of the compound; type: physicochemical
[18] = biological target: T3, Platelet-derived growth factor receptor alpha; experiment: Inhibition of partial-length human wild type PDGFR-alpha expressed in mammalian expression system by KINOMEscan assay
[19] = Cmax in C57BL/6 mouse at 30 mg/kg, sc by LC-MS/MS analysis; type: ADME, organism-based; set-up: dose 30 mg/kg, route subcutaneous; details: in vivo
[20] = AUC (0 to 7 hrs) in C57BL/6 mouse at 1 mg/kg, iv by LC-MS/MS analysis; type: ADME, organism-based; set-up: time < 7 hr, dose 1 mg/kg, route intravenous; details: in vivo
[21] = Apparent permeability across apical to basolateral side in human Caco2 cells; type: ADME, cell-based; details: Caco-2
Plasma [22] = experiment: Drug uptake in plasma of athymic nude mouse at 120 mg/kg, sc bid; type: ADME, organism-based; details: in vivo
[23] = Extraction ratio in mouse microsomes; type: ADME, Microsome
[24] = Tmax in C57BL/6 mouse at 10 mg/kg, po by LC-MS/MS analysis; type: ADME, organism-based; details: in vivo
[25] = Cmax in C57BL/6 mouse at 10 mg/kg, po by LC-MS/MS analysis; type: ADME, organism-based; set-up: dose 10 mg/kg, route oral; details: in vivo
[26] = biological target: T4, Serine/threonine-protein kinase haspin (Homo sapiens, UniProt Q8TF76); experiment: Inhibition of partial-length human wild type HASPIN expressed in mammalian expression system by KINOMEscan assay
T4 sequence (Q8TF76 whole entry): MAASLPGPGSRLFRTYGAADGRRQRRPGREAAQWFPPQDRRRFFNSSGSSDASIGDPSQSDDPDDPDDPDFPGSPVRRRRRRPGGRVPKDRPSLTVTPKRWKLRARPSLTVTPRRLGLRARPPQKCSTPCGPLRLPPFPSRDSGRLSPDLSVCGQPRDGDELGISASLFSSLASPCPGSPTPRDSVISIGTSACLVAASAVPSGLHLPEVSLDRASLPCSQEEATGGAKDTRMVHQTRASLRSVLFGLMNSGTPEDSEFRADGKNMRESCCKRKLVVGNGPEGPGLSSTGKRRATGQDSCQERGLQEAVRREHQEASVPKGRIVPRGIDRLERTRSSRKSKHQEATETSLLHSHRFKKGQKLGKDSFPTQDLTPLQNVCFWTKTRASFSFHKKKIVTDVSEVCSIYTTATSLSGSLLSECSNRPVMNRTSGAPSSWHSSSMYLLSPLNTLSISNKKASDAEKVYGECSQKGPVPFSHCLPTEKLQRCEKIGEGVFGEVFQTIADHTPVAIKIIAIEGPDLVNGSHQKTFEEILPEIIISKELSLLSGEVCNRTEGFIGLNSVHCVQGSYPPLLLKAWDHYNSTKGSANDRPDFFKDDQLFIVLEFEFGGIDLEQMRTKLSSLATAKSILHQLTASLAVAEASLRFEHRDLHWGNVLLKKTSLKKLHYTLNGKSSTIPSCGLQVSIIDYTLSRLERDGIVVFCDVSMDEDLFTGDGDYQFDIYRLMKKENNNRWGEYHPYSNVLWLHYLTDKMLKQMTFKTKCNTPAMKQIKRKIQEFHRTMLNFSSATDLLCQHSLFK

[27] = Oral bioavailability in C57BL/6 mouse at 10 mg/kg by LC-MS/MS analysis; type: ADME, organism-based; details: in vivo
[28] = Volume of distribution at steady state in C57BL/6 mouse at 1 mg/kg, iv by LC-MS/MS analysis; type: ADME, organism-based; details: in vivo, read-out: Vdss
[29] = Oral bioavailability in C57BL/6 mouse at 5 mg/kg by LC-MS/MS analysis; type: ADME, organism-based; details: in vivo
[30] = Tmax in C57BL/6 mouse at 5 mg/kg, po by LC-MS/MS analysis; type: ADME, organism-based; details: in vivo
[31] = AUC (0 to 7 hrs) in C57BL/6 mouse at 5 mg/kg, po by LC-MS/MS analysis; type: ADME, organism-based; set-up: dose 5 mg/kg, time < 7 hr, route oral; details: in vivo
[32] = Cmax in C57BL/6 mouse at 5 mg/kg, po by LC-MS/MS analysis; type: ADME, organism-based; set-up: dose 5 mg/kg, route oral; details: in vivo

T1 sequence (Q14680 whole entry, the tested form may be a part): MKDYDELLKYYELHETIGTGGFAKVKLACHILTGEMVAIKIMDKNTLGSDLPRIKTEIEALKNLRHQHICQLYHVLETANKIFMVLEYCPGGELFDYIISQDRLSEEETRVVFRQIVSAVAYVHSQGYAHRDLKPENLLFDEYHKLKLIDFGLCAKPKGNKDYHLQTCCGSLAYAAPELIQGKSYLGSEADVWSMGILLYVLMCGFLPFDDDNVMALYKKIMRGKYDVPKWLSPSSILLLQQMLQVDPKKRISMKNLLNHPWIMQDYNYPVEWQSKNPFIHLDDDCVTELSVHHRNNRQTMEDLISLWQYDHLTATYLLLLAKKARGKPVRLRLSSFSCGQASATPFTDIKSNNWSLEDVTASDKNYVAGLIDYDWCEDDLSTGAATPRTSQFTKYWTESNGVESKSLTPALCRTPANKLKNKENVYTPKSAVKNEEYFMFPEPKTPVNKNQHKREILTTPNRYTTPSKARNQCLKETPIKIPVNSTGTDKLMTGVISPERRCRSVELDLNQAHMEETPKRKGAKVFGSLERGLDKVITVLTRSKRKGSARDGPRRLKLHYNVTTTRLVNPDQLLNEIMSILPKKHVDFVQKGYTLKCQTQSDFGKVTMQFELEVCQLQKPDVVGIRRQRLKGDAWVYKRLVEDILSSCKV
T3 sequence (P16234 whole entry): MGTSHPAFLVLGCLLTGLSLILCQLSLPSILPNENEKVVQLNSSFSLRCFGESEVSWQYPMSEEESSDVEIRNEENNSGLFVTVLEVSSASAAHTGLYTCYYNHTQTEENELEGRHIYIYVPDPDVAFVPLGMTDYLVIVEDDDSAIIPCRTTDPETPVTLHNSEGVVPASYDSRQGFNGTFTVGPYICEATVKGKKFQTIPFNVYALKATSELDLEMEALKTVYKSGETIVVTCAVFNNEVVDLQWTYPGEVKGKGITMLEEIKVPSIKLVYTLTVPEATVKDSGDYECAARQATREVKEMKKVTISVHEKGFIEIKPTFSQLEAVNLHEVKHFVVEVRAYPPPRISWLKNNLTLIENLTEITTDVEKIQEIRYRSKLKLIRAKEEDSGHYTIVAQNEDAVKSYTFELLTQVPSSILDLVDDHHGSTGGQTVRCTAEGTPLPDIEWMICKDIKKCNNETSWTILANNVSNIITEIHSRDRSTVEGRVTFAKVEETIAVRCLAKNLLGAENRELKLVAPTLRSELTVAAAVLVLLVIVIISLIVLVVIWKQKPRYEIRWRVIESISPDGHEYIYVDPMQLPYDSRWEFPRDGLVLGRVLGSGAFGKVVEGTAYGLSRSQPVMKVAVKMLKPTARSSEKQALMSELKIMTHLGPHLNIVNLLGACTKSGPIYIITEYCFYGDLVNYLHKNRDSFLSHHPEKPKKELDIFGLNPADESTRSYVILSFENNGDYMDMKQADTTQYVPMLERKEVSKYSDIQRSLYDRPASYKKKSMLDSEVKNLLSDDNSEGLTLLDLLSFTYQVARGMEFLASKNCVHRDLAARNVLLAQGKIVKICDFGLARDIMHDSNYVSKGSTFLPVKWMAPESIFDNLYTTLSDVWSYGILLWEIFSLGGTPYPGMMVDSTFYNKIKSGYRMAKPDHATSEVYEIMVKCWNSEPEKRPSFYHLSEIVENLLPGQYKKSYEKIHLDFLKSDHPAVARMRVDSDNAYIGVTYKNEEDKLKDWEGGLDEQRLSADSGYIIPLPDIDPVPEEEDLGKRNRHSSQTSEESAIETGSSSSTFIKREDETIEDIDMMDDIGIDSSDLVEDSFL
Chain of Mitogen-activated protein kinase kinase kinase kinase 4 (O95819 whole entry): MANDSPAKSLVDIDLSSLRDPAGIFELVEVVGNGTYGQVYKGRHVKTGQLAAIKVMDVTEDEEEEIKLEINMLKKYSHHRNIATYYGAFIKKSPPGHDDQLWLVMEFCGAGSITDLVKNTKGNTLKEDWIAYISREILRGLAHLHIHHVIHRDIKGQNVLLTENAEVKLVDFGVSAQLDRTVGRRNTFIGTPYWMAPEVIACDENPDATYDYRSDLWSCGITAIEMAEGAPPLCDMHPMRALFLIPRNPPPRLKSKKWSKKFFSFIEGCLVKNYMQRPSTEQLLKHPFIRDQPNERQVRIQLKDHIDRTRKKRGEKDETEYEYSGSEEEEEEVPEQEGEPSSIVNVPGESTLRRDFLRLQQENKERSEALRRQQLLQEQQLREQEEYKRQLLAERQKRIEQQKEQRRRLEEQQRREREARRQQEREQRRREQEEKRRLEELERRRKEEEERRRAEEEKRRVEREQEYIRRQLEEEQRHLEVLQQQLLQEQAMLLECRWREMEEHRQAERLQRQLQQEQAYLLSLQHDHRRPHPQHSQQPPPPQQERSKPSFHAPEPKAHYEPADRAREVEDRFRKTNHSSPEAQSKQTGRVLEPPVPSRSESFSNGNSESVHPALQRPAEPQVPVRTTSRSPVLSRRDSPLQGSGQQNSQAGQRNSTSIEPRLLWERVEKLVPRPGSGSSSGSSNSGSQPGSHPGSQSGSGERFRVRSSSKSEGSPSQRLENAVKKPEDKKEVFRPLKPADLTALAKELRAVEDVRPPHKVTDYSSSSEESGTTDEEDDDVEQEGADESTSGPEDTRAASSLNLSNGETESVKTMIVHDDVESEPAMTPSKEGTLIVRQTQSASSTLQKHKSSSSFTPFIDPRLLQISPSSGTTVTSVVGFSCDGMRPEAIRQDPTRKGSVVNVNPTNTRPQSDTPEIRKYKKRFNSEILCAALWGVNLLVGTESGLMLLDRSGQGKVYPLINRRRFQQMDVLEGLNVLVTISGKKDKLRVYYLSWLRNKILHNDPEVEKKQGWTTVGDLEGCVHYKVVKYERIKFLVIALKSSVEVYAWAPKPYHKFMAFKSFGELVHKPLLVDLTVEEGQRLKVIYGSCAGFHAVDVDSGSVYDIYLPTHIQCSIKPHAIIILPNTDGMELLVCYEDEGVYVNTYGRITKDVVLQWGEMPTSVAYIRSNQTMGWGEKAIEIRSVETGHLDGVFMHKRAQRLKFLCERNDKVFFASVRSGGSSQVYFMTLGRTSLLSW
Chain of Mast/stem cell growth factor receptor Kit (P10721 26-976 A829P limits assumed): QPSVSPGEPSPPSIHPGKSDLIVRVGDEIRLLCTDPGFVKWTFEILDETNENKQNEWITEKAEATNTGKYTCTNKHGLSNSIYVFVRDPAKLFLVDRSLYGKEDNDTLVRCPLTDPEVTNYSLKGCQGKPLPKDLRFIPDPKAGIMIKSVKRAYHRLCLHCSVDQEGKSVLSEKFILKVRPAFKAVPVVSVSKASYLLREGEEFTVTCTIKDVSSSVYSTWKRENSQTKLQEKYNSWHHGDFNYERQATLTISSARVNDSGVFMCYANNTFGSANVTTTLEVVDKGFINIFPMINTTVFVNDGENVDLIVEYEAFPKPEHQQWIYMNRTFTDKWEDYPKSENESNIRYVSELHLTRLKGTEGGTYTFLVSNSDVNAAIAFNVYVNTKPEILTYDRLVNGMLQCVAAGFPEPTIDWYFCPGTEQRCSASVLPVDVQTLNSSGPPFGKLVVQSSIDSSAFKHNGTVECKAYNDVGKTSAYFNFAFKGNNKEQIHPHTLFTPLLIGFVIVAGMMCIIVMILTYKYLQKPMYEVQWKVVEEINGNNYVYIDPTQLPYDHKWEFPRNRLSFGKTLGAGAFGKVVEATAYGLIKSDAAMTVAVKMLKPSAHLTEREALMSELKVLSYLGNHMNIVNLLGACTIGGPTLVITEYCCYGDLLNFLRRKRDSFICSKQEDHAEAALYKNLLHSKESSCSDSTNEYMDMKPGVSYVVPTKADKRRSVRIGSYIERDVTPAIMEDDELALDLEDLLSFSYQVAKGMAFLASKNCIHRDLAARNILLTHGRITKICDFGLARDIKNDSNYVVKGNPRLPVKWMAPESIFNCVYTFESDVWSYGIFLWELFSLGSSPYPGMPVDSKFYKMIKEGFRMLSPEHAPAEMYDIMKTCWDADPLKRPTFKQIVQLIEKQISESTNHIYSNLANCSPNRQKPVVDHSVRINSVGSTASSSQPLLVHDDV

- IC50 [1]: 260 nM
- IC50 [2]: 6 nM
Structure (SMILES): CN1CCN(c2ccc(-n3cc(-c4ccncc4OC4CCNCC4)cn3)cc2)CC1

- IC50 [2]: > 20000 nM
Structure (SMILES): CS(=O)(=O)c1ccc(-n2cc(-c3ccccc3)cn2)cc1

- IC50 [2]: 13 nM
Structure (SMILES): Fc1ccccc1-n1cc(-c2ccncc2OCC2CCNCC2)cn1

- IC50 [2]: 64 nM
Structure (SMILES): COc1cnccc1-c1cnn(-c2ccc(N3CCN(C)CC3)cc2)c1

- IC50 [1]: 410 nM
- IC50 [2]: 9 nM
Structure (SMILES): CC(C)COc1cnccc1-c1cnn(-c2ccc(N3CCN(C)CC3)cc2)c1

- IC50 [1]: 1440 nM
- IC50 [2]: 25 nM
Structure (SMILES): CN1CCN(c2ccc(-n3cc(-c4ccncc4OCc4ccncc4)cn3)cc2)CC1

- IC50 [1]: 5000 nM
- IC50 [2]: 70 nM
Structure (SMILES): CN1CCN(c2ccc(-n3cc(-c4ccncc4F)cn3)cc2)CC1

- IC50 [2]: 520 nM
Structure (SMILES): CS(=O)(=O)c1ccc(-n2cc(-c3ccc(O)cc3)cn2)cc1

- IC50 [2]: 670 nM
Structure (SMILES): CN1CCN(c2ccc(-c3cc(-c4ccccc4)n[nH]3)cc2)CC1

- IC50 [2]: 0.3 nM
Structure (SMILES): Fc1cc(N2CCOCC2)ccc1-n1cc(-c2ccncc2OCC2CCNCC2)cn1

Continued, compound first:

Structure (SMILES): c1cc(-c2cnn(-c3ccc(N4CCOCC4)cc3)c2)c(OCC2CCNCC2)cn1
- IC50 [1]: 210 nM
- IC50 [2]: 6 nM

Structure (SMILES): O=C(NCc1ccccn1)c1ccc(-n2cc(-c3ccncc3)cn2)cc1
- IC50 [1]: 18800 nM
- IC50 [3]: < 5000 nM
- IC50 [4]: < 5000 nM
- IC50 [2]: 180 nM
- IC50 [5]: < 5000 nM

Structure (SMILES): CN1CCN(c2ccc(-n3cc(-c4ccncc4)cn3)cc2)CC1
- IC50 [1]: 5000 nM
- IC50 [2]: 80 nM

Structure (SMILES): CN1CCN(c2ccc(-n3cc(-c4ccncc4OC4CCCCC4)cn3)cc2)CC1
- IC50 [1]: 150 nM
- IC50 [2]: 4 nM

Structure (SMILES): CS(=O)(=O)c1ccc(-n2cc(-c3ccncc3)cn2)cc1
- IC50 [2]: 400 nM

Structure (SMILES): CN1CCN(c2ccc(-n3cc(-c4ccncc4OC[C@H]4CC[C@H](N)CC4)cn3)cc2)CC1
- IC50 [1]: 57 nM
- IC50 (MDA-MB-468): 60 nM
- IC50 (MCF7): 1200 nM
- IC50 [2]: 1 nM

Structure (SMILES): CN1CCN(c2ccc(-n3cc(-c4ccncc4OCC4CCNCC4)cn3)cc2)CC1
- clearance [6]: 114 mL/min/kg
- IC50 [1]: 140 nM
- Tmax [7]: 24 min
- AUC(0-t) at 7 h [8]: 0.0832 µM·h
- IC50 [9]: > 10000 nM
- Drug uptake (Plasma [10]): Active
- AUC(0-t) at 7 h [11]: 18.9 µM·h
- IC50 [12]: 180 nM
- IC50 (MDA-MB-468): 110 nM
- IC50 [13]: 2 nM
- Stability (Plasma [14]): Stable
- IC50 (MCF7): 3680 nM
- IC50 [15]: 5 nM
- solubility [16]: 220 µg/mL (≈ 509 µM)
- half-life [17]: 1 min
- IC50 [18]: 420 nM
- Cmax [19]: 6560 nM
- AUC(0-t) at 7 h [20]: 0.23 µM·h
- Papp A→B [21]: 14 ×10⁻⁶ cm/s
- IC50 [2]: 2 nM
- Drug uptake (Plasma [22]): Active
- hepatic extraction ratio [23]: 0.75
- Tmax [24]: 30 min
- Cmax [25]: 34 nM
- IC50 [26]: 190 nM
- bioavailability [27]: 3.6%
- Vd [28]: 40.8 L/kg

Structure (SMILES): c1ccc(-n2cc(-c3ccncc3OCC3CCNCC3)cn2)cc1
- bioavailability [29]: 43%
- Tmax [30]: 102 min
- AUC(0-t) at 7 h [31]: 3.44 µM·h
- Cmax [32]: 1030 nM
- IC50 [2]: 36 nM
